Bounds are passed on as bounds.

The target of series [1] is T1, Hexokinase-2 (Homo sapiens, UniProt P52789).
T1 sequence (P52789 whole entry): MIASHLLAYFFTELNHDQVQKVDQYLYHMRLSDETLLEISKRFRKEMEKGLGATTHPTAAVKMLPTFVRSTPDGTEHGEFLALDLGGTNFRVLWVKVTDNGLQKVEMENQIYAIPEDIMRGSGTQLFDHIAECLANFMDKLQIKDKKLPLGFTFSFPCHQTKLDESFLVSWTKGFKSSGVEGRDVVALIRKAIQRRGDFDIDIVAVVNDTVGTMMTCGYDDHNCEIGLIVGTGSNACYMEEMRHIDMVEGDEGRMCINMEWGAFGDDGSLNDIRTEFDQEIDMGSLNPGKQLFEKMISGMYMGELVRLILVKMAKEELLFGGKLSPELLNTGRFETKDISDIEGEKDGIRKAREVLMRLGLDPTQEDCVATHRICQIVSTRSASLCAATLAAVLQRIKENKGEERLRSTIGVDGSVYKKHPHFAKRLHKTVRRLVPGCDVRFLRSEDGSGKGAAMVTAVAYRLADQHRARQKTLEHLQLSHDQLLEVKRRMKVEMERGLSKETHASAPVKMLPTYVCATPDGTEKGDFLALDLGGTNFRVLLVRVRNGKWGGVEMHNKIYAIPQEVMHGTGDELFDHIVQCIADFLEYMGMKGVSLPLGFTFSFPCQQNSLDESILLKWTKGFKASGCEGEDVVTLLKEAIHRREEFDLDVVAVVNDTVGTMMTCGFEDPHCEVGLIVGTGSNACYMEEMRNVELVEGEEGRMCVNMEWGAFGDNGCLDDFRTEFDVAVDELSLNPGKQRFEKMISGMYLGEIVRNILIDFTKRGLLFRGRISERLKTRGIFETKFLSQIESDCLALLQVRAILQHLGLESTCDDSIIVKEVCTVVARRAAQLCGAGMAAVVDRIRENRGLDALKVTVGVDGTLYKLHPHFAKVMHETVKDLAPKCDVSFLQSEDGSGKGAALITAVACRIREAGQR
Description: Inhibition of recombinant human HK2 expressed in Escherichia coli BL21(DE3) using glucose as substrate preincubated for 10 mins followed by substrate addition in presence of ATP by G6PDH/NADP coupled assay.

Series [2] has as its system RAW264.7. Nature of the series: Antiinflammatory activity in mouse RAW264.7 cells assessed as inhibition of LPS-induced NO production preincubated for 3 hrs followed by LPS addition measured after 24 hrs by Griess assay. It is filed as functional, cell-based.
Compound in series [3]: C=C1CC[C@H]2[C@@](C)(CCC(=O)N[C@@]2(C)COC(=O)CCCC[C@@H]2CCSS2)[C@@H]1/C=C/C1=CCOC1=O
Nature of the series: Non competitive inhibition of recombinant human HK2 expressed in Escherichia coli BL21(DE3) assessed as Vmax using 12.5 uM ATP as substrate by Lineweaver-Burk double reciprocal plot analysis (reference value: 0.019 OD/min).

Compound in series [4]: C=C1CC[C@H]2[C@@](C)(CCC(=O)N[C@@]2(C)COC(=O)CCCC[C@@H]2CCSS2)[C@@H]1/C=C/C1=CCOC1=O
Nature of the series: Non competitive inhibition of recombinant human HK2 expressed in Escherichia coli BL21(DE3) assessed as Vmax using 3.125 uM ATP as substrate by Lineweaver-Burk double reciprocal plot analysis (reference value: 0.019 OD/min).

Compound in series [5]: C=C1CC[C@H]2[C@@](C)(CCC(=O)N[C@@]2(C)COC(=O)CCCC[C@@H]2CCSS2)[C@@H]1/C=C/C1=CCOC1=O
Nature of the series: Non competitive inhibition of recombinant human HK2 expressed in Escherichia coli BL21(DE3) assessed as Vmax using 6.25 uM glucose as substrate by Lineweaver-Burk double reciprocal plot analysis (reference value: 0.012 OD/min).

Compound in series [6]: C=C1CC[C@H]2[C@@](C)(CCC(=O)N[C@@]2(C)COC(=O)CCCC[C@@H]2CCSS2)[C@@H]1/C=C/C1=CCOC1=O
Description: Non competitive inhibition of recombinant human HK2 expressed in Escherichia coli BL21(DE3) assessed as Vmax using 6.25 uM ATP as substrate by Lineweaver-Burk double reciprocal plot analysis (reference value: 0.019 OD/min).

Compound in series [7]: C=C1CC[C@H]2[C@@](C)(CCC(=O)N[C@@]2(C)COC(=O)CCCC[C@@H]2CCSS2)[C@@H]1/C=C/C1=CCOC1=O
Nature of the series: Non competitive inhibition of recombinant human HK2 expressed in Escherichia coli BL21(DE3) assessed as Km using 3.125 uM ATP as substrate by Lineweaver-Burk double reciprocal plot analysis (reference value: 1.62 mM).

Compound in series [8]: C=C1CC[C@H]2[C@@](C)(CCC(=O)N[C@@]2(C)COC(=O)CCCC[C@@H]2CCSS2)[C@@H]1/C=C/C1=CCOC1=O
Description: Non competitive inhibition of recombinant human HK2 expressed in Escherichia coli BL21(DE3) assessed as Km using 6.25 uM ATP as substrate by Lineweaver-Burk double reciprocal plot analysis (reference value: 1.62 mM).

Compound in series [9]: C=C1CC[C@H]2[C@@](C)(CCC(=O)N[C@@]2(C)COC(=O)CCCC[C@@H]2CCSS2)[C@@H]1/C=C/C1=CCOC1=O
Nature of the series: Non competitive inhibition of recombinant human HK2 expressed in Escherichia coli BL21(DE3) assessed as Vmax using 12.5 uM glucose as substrate by Lineweaver-Burk double reciprocal plot analysis (reference value: 0.012 OD/min).

Compound in series [10]: C=C1CC[C@H]2[C@@](C)(CCC(=O)N[C@@]2(C)COC(=O)CCCC[C@@H]2CCSS2)[C@@H]1/C=C/C1=CCOC1=O
Nature of the series: Non competitive inhibition of recombinant human HK2 expressed in Escherichia coli BL21(DE3) assessed as Km using 12.5 uM glucose as substrate by Lineweaver-Burk double reciprocal plot analysis (reference value: 0.64 mM).

Compound in series [11]: C=C1CC[C@H]2[C@@](C)(CCC(=O)N[C@@]2(C)COC(=O)CCCC[C@@H]2CCSS2)[C@@H]1/C=C/C1=CCOC1=O
Description: Non competitive inhibition of recombinant human HK2 expressed in Escherichia coli BL21(DE3) assessed as Km using 3.125 uM glucose as substrate by Lineweaver-Burk double reciprocal plot analysis (reference value: 0.64 mM).

Compound in series [12]: C=C1CC[C@H]2[C@@](C)(CCC(=O)N[C@@]2(C)COC(=O)CCCC[C@@H]2CCSS2)[C@@H]1/C=C/C1=CCOC1=O
Nature of the series: Non competitive inhibition of recombinant human HK2 expressed in Escherichia coli BL21(DE3) assessed as Km using 12.5 uM ATP as substrate by Lineweaver-Burk double reciprocal plot analysis (reference value: 1.62 mM).

Compound in series [13]: C=C1CC[C@H]2[C@@](C)(CCC(=O)N[C@@]2(C)COC(=O)CCCC[C@@H]2CCSS2)[C@@H]1/C=C/C1=CCOC1=O
Nature of the series: Non competitive inhibition of recombinant human HK2 expressed in Escherichia coli BL21(DE3) assessed as Km using 6.25 uM glucose as substrate by Lineweaver-Burk double reciprocal plot analysis (reference value: 0.64 mM).

Compound in series [14]: C=C1CC[C@H]2[C@@](C)(CCC(=O)N[C@@]2(C)COC(=O)CCCC[C@@H]2CCSS2)[C@@H]1/C=C/C1=CCOC1=O
Nature of the series: Non competitive inhibition of recombinant human HK2 expressed in Escherichia coli BL21(DE3) assessed as Vmax using 3.125 uM glucose as substrate by Lineweaver-Burk double reciprocal plot analysis (reference value: 0.012 OD/min).

For the molecule `C=C1CC[C@H]2[C@@](C)(CCC(=O)N[C@@]2(C)COC(=O)c2cccnc2)[C@@H]1/C=C/C1=CCOC1=O`, the IC50 in [1] and in [2] was more than 50 µM in each case.

Turning to `C=C1CC[C@H]2[C@@](C)(CC[C@@H](OC(=O)c3ccccc3)[C@@]2(C)NC=O)[C@@H]1/C=C/C1=CCOC1=O`, the results for the IC50 in [1] and in series [2] were more than 50 µM and 50 µM, respectively.

For `C[C@]12CCC(=O)C=C1CC[C@@H]1[C@@H]2[C@@H](O)C[C@@]2(C)[C@H]1CC[C@]2(O)C(=O)CO` [HYDROCORTISONE], the IC50 in series [2] is 52.4 µM.

Take `C=C1CC[C@@H]2[C@](C)(CO)[C@H](O)CC[C@@]2(C)[C@@H]1C/C=C1/C(=O)OC[C@H]1O` [ANDROGRAPHOLIDE]: the IC50 in series [1] is more than 50 µM; in series [2], 14.4 µM.

Regarding `C=C1CC[C@H]2[C@@](C)(CCC(=O)N[C@@]2(C)COC(=O)c2ccccc2[N+](=O)[O-])[C@@H]1/C=C/C1=CCOC1=O`, the IC50 in [1] and in series [2] was more than 50 µM in each case.

Take `C=C1CC[C@H]2[C@@](C)(CCC(=O)N[C@@]2(C)COC(=O)[C@@H]2CCCN2)[C@@H]1/C=C/C1=CCOC1=O`: the IC50 in series [1] and in series [2] was more than 50 µM each time.

`C=C1CC[C@H]2[C@@](C)(CC[C@@H](OC(=O)CCCC[C@@H]3CCSS3)[C@@]2(C)NC=O)[C@@H]1/C=C/C1=CCOC1=O`: the IC50 in series [1] and in series [2] was more than 50 µM each time.

For the molecule `C=C1CC[C@H]2[C@@](C)(CC[C@@H](OC(=O)C(N)CC(C)C)[C@@]2(C)NC=O)[C@@H]1/C=C/C1=CCOC1=O` (single isomer, unassigned), the IC50 in series [1] and in series [2] was more than 50 µM in each case.

In the case of `C=C1CC[C@H]2[C@@](C)(CCC(=O)N[C@@]2(C)COC(=O)c2ccccc2)[C@@H]1/C=C/C1=CCOC1=O`, the IC50 in series [1] and in series [2] was more than 50 µM in each case.

In the case of `C=C1CC[C@H]2[C@@](C)(CC[C@@H](OC(=O)[C@H]3CCCN3)[C@@]2(C)NC=O)[C@@H]1/C=C/C1=CCOC1=O`, the IC50 in [1] is 26.1 µM; in series [2], more than 50 µM.

Turning to `C=C1CC[C@H]2[C@@](C)(CCC(=O)N[C@@]2(C)COC(=O)c2ccc([N+](=O)[O-])cc2)[C@@H]1/C=C/C1=CCOC1=O`, the IC50 was more than 50 µM in series [1] and 33.5 µM in series [2].

Regarding `C=C1CC[C@H]2[C@@](C)(CC[C@@H](OC(=O)CN)[C@@]2(C)NC=O)[C@@H]1/C=C/C1=CCOC1=O`, the IC50 in series [1] and in [2] was more than 50 µM throughout.

Take `C=C1CC[C@H]2[C@@](C)(CC[C@@H](OC(=O)c3ccccc3[N+](=O)[O-])[C@@]2(C)NC=O)[C@@H]1/C=C/C1=CCOC1=O`: the IC50 in [1] and in [2] was more than 50 µM each time.

As to `C=C1CC[C@H]2[C@@](C)(CCC(=O)N[C@@]2(C)COC(=O)[C@H](N)CC(C)C)[C@@H]1/C=C/C1=CCOC1=O`, the IC50 in series [1] and in series [2] was more than 50 µM in each case.

As to `C=C1CC[C@H]2[C@@](C)(CCC(=O)N[C@@]2(C)CO)[C@@H]1/C=C/C1=CCOC1=O`, the IC50 in series [1] and in series [2] was more than 50 µM throughout.

With `C=C1CC[C@H]2[C@@](C)(CC[C@@H](OC(=O)c3cccnc3)[C@@]2(C)NC=O)[C@@H]1/C=C/C1=CCOC1=O`, the IC50 in [1] and in [2] was more than 50 µM in each case.

In the case of `C=C1CC[C@H]2[C@@](C)(CC[C@@H](O)[C@@]2(C)NC=O)[C@@H]1/C=C/C1=CCOC1=O`, the IC50 in series [1] and in series [2] was more than 50 µM throughout.

For the molecule `C=C1CC[C@H]2[C@@](C)(CC[C@@H](OC(=O)CNC)[C@@]2(C)NC=O)[C@@H]1/C=C/C1=CCOC1=O`, the IC50 in series [1] and in [2] was more than 50 µM throughout.

Turning to `C=C1CC[C@H]2[C@@](C)(CC[C@@H](OC(=O)c3ccc([N+](=O)[O-])cc3)[C@@]2(C)NC=O)[C@@H]1/C=C/C1=CCOC1=O`, the IC50 in series [1] and in series [2] was more than 50 µM throughout.

Turning to `C=C1CC[C@H]2[C@@](C)(CC[C@@H](OC(=O)[C@@H](N)Cc3ccccc3)[C@@]2(C)NC=O)[C@@H]1/C=C/C1=CCOC1=O`, the IC50 in [1] and in series [2] was more than 50 µM in each case.

`C=C1CC[C@H]2[C@@](C)(CCC(=O)N[C@@]2(C)COC(=O)[C@H](N)Cc2ccccc2)[C@@H]1/C=C/C1=CCOC1=O`: the IC50 was 4.8 µM in series [1] and more than 50 µM in series [2].

B1: Hexokinase-2 (Homo sapiens), P52789 (protein)
chain: T1 sequence (P52789 whole entry)
In the case of B1, the Vmax (optical density/minute) in series [3] was 0.005; in series [4], 0.012; in series [5], 0.005; in series [6], 0.007; in [9], 0.004; in series [14], 0.007. In addition, the Km in [7] stood at 1280 µM; in series [8] it was 1280 µM; in [10], 657 µM; in series [11], 685 µM; in series [12], 1210 µM; in series [13], 695 µM.

The values are drawn from ChEMBL document CHEMBL4346716, “Synthesis of novel andrographolide beckmann rearrangement derivatives and evaluation of their HK2-related anti-inflammatory activities” (Eur J Med Chem, 2019).
